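The compound was tested at five concentrations on cells cultured in 96-well plates, with a 48-hour exposure period. GI50 marks 50% less growth.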 Active and inactive are the calls of the source. Rule as the data show it: active = GI50 up to about 1.1 µM and inactive = higher.
Key:
Test in all cases: NCI-60 cell line screen, 48 h
OVCAR-5 = tested on: OVCAR-5
SNB-19 = tested on: SNB-19
NCI-H522 = tested on: NCI-H522
MDA-MB-435 = tested on: MDA-MB-435
SK-MEL-5 = tested on: SK-MEL-5
HT-29 = tested on: HT-29
NCI-H23 = tested on: NCI-H23
MOLT-4 = tested on: MOLT-4
SK-MEL-2 = tested on: SK-MEL-2
LOX IMVI = tested on: LOX IMVI
UACC-257 = tested on: UACC-257
MDA-N = tested on: MDA-N
CCRF-CEM = tested on: CCRF-CEM
DU-145 = tested on: DU-145
NCI/ADR-RES = tested on: NCI/ADR-RES
OVCAR-8 = tested on: OVCAR-8
CAKI-1 = tested on: CAKI-1
MDA-MB-231 = tested on: MDA-MB-231
HL-60 = tested on: HL-60
A498 = tested on: A498

SMILES | GI50 (OVCAR-5) | GI50 (SNB-19) | GI50 (NCI-H522) | GI50 (MDA-MB-435) | GI50 (SK-MEL-5) | GI50 (HT-29) | GI50 (NCI-H23) | GI50 (MOLT-4) | GI50 (SK-MEL-2) | GI50 (LOX IMVI) | GI50 (UACC-257) | GI50 (MDA-N) | GI50 (CCRF-CEM) | GI50 (DU-145) | GI50 (NCI/ADR-RES) | GI50 (OVCAR-8) | GI50 (CAKI-1) | GI50 (MDA-MB-231) | GI50 (HL-60) | GI50 (A498)
COc1cc(/C=C2/C[C@H]3[C@@H]4CC=C5C[C@@H](OC(C)=O)CC[C@]5(C)[C@H]4CC[C@]3(C)NC2=O)cc(OC)c1OC | 27 µM (inactive) | 15.9 µM (inactive) | 24.6 µM (inactive) | 36.3 µM (inactive) | 22.9 µM (inactive) | 38.7 µM (inactive) | 23.9 µM (inactive) | 16.9 µM (inactive) | 18.7 µM (inactive) | 38.7 µM (inactive) | 26.5 µM (inactive) | 42.7 µM (inactive) | 49.4 µM (inactive) | 20.8 µM (inactive) | 20 µM (inactive) | 27.8 µM (inactive) | 29.5 µM (inactive) | 22 µM (inactive) | – | –
O=[N+]([O-])c1ccc(/C(=N/c2ccccc2)SS/C(=N\c2ccccc2)c2ccc([N+](=O)[O-])o2)o1 | 2.08 µM (inactive) | 1.84 µM (inactive) | 0.243 µM (active) | 2.1 µM (inactive) | 5.78 µM (inactive) | 1.35 µM (inactive) | 1.6 µM (inactive) | 2.51 µM (inactive) | 2.51 µM (inactive) | 1.49 µM (inactive) | 2.11 µM (inactive) | 2.72 µM (inactive) | 2.03 µM (inactive) | 1.69 µM (inactive) | 1.86 µM (inactive) | 1.52 µM (inactive) | 1.97 µM (inactive) | 2.74 µM (inactive) | 2.09 µM (inactive) | –
COc1ccc(C[N+]23C(CC[C@H]2c2ccccc2)CC[C@H]3c2ccccc2)cc1 (some centres not stated) | 32.3 µM (inactive) | 27.2 µM (inactive) | 8.73 µM (inactive) | 9.84 µM (inactive) | 4.43 µM (inactive) | 12.2 µM (inactive) | – | 21.6 µM (inactive) | 18.5 µM (inactive) | 16.6 µM (inactive) | 5.22 µM (inactive) | 13.2 µM (inactive) | 27.5 µM (inactive) | 23.8 µM (inactive) | – | 22.9 µM (inactive) | 75.5 µM (inactive) | 28.2 µM (inactive) | 4.06 µM (inactive) | 39.7 µM (inactive)
Cn1cnc([N+](=O)[O-])c1Sc1nncc2[nH]cnc12 | > 100 µM (inactive) | 7.82 µM (inactive) | > 100 µM (inactive) | > 100 µM (inactive) | > 100 µM (inactive) | > 100 µM (inactive) | > 100 µM (inactive) | > 100 µM (inactive) | > 100 µM (inactive) | > 100 µM (inactive) | > 100 µM (inactive) | > 100 µM (inactive) | > 100 µM (inactive) | – | > 100 µM (inactive) | > 100 µM (inactive) | > 100 µM (inactive) | > 100 µM (inactive) | > 100 µM (inactive) | > 100 µM (inactive)
CC1(C)C(CC(=O)O)CCCC1CC(=O)O (configuration not stated) | > 100 µM (inactive) | > 100 µM (inactive) | – | > 100 µM (inactive) | > 100 µM (inactive) | > 100 µM (inactive) | > 100 µM (inactive) | > 100 µM (inactive) | > 100 µM (inactive) | > 100 µM (inactive) | > 100 µM (inactive) | > 100 µM (inactive) | > 100 µM (inactive) | > 100 µM (inactive) | > 100 µM (inactive) | > 100 µM (inactive) | > 100 µM (inactive) | > 100 µM (inactive) | – | > 100 µM (inactive)
CC(=O)O[C@H]1C(=O)[C@@]2(C)[C@H]([C@H](OC(=O)C3CCCCC3)[C@]3(O)C[C@H](OC(=O)[C@H](O)[C@@H](NC(=O)C4CCCCC4)C4CCCCC4)C(C)=C1C3(C)C)[C@]1(OC(C)=O)CO[C@@H]1C[C@@H]2O | 0.0224 µM (active) | 0.057 µM (active) | 0.00658 µM (active) | 0.00256 µM (active) | 0.0147 µM (active) | – | < 0.0132 µM (active) | 0.0151 µM (active) | – | 0.0272 µM (active) | 0.0389 µM (active) | 0.0025 µM (active) | 0.0234 µM (active) | 0.151 µM (active) | 1.07 µM (active) | 0.0228 µM (active) | 0.105 µM (active) | 0.0336 µM (active) | 0.00586 µM (active) | 0.0902 µM (active)
CC(C)CCC[C@@H](C)[C@H]1CC[C@H]2[C@@H]3CC=C4C[C@@H](OC(=O)c5cccc6c(=O)c7ccccc7[nH]c56)CC[C@]4(C)[C@H]3CC[C@]12C | > 75 µM (inactive) | > 75 µM (inactive) | > 75 µM (inactive) | > 75 µM (inactive) | > 75 µM (inactive) | > 75 µM (inactive) | > 75 µM (inactive) | > 75 µM (inactive) | > 75 µM (inactive) | > 75 µM (inactive) | > 75 µM (inactive) | 1.56 µM (inactive) | – | – | > 75 µM (inactive) | > 75 µM (inactive) | – | 3.91 µM (inactive) | – | > 75 µM (inactive)
O=C1C(Br)=CC2(C=C1Br)CCNC1=C2C(=O)c2ncccc2C1=O | 1.67 µM (inactive) | 1.28 µM (inactive) | 0.353 µM (active) | 0.189 µM (active) | 0.533 µM (active) | 1.99 µM (inactive) | 0.39 µM (active) | 1.83 µM (inactive) | 0.116 µM (active) | 0.313 µM (active) | 0.631 µM (active) | 0.183 µM (active) | 1.58 µM (inactive) | 1.68 µM (inactive) | 1.82 µM (inactive) | 1.44 µM (inactive) | 1.61 µM (inactive) | 1.75 µM (inactive) | 1.06 µM (active) | –
Nn1c(S)nnc1CCCCCCCCc1nnc(S)n1N | > 100 µM (inactive) | > 100 µM (inactive) | > 100 µM (inactive) | > 100 µM (inactive) | – | > 100 µM (inactive) | > 100 µM (inactive) | > 100 µM (inactive) | > 100 µM (inactive) | – | > 100 µM (inactive) | > 100 µM (inactive) | 90.8 µM (inactive) | > 100 µM (inactive) | > 100 µM (inactive) | > 100 µM (inactive) | > 100 µM (inactive) | > 100 µM (inactive) | > 100 µM (inactive) | > 100 µM (inactive)
COC(=O)c1cc2ccc(N)nc2[nH]c1=O | > 100 µM (inactive) | > 100 µM (inactive) | > 100 µM (inactive) | > 100 µM (inactive) | > 100 µM (inactive) | – | > 100 µM (inactive) | – | > 100 µM (inactive) | > 100 µM (inactive) | > 100 µM (inactive) | > 100 µM (inactive) | – | – | > 100 µM (inactive) | > 100 µM (inactive) | > 100 µM (inactive) | > 100 µM (inactive) | – | > 100 µM (inactive)
Cc1cccc(Cl)c1NCC(O)CN1CCN(C)CC1 (configuration not stated) | > 100 µM (inactive) | > 100 µM (inactive) | > 100 µM (inactive) | > 100 µM (inactive) | > 100 µM (inactive) | > 100 µM (inactive) | > 100 µM (inactive) | > 100 µM (inactive) | > 100 µM (inactive) | > 100 µM (inactive) | > 100 µM (inactive) | > 100 µM (inactive) | > 100 µM (inactive) | > 100 µM (inactive) | > 100 µM (inactive) | > 100 µM (inactive) | > 100 µM (inactive) | > 100 µM (inactive) | – | > 100 µM (inactive)
Cn1cc(NC(=O)Nc2cc(C(=O)Nc3cc(C(=O)Nc4cc(S(=O)(=O)O)c5cc(S(=O)(=O)O)cc(S(=O)(=O)O)c5c4)n(C)c3)n(C)c2)cc1C(=O)Nc1cc(C(=O)Nc2cc(S(=O)(=O)O)c3cc(S(=O)(=O)O)cc(S(=O)(=O)O)c3c2)n(C)c1 | > 100 µM (inactive) | > 100 µM (inactive) | > 100 µM (inactive) | > 100 µM (inactive) | > 100 µM (inactive) | > 100 µM (inactive) | > 100 µM (inactive) | > 100 µM (inactive) | – | – | > 100 µM (inactive) | > 100 µM (inactive) | > 100 µM (inactive) | > 100 µM (inactive) | > 100 µM (inactive) | > 100 µM (inactive) | – | > 100 µM (inactive) | > 100 µM (inactive) | –
CC(C)CCC[C@@H](C)C1CCC2[C@@H]3CCC4CC(CCC=C(c5cc(Cl)c(OC(=O)c6ccccc6)c(C(=O)O)c5)c5cc(Cl)c(OC(=O)c6ccccc6)c(C(=O)O)c5)CC[C@]4(C)C3CC[C@@]21C (some centres not stated) | > 100 µM (inactive) | > 100 µM (inactive) | > 100 µM (inactive) | 72.8 µM (inactive) | 28.8 µM (inactive) | > 100 µM (inactive) | > 100 µM (inactive) | > 100 µM (inactive) | > 100 µM (inactive) | – | 58.2 µM (inactive) | > 100 µM (inactive) | > 100 µM (inactive) | > 100 µM (inactive) | > 100 µM (inactive) | > 100 µM (inactive) | > 100 µM (inactive) | 12.6 µM (inactive) | > 100 µM (inactive) | 52.5 µM (inactive)
CO[C@H]1/C=C/O[C@@]2(C)Oc3c(C)c(O)c4c(O)c(c(/C=N/N5CCN(C)CC5)c(O)c4c3C2=O)NC(=O)/C(C)=C\C=C\[C@H](C)[C@H](O)[C@@H](C)[C@@H](O)[C@@H](C)[C@H](OC(C)=O)[C@@H]1C [RIFAMPIN] | > 100 µM (inactive) | – | – | > 100 µM (inactive) | 61.4 µM (inactive) | 60 µM (inactive) | – | 68.7 µM (inactive) | > 100 µM (inactive) | – | 80.5 µM (inactive) | > 100 µM (inactive) | 26.2 µM (inactive) | > 100 µM (inactive) | > 100 µM (inactive) | > 100 µM (inactive) | > 100 µM (inactive) | 24.5 µM (inactive) | – | > 100 µM (inactive)

From ChEMBL document CHEMBL1201862, “PubChem BioAssay data set” (2004)
